Consider 30 compounds from US7803801B2, “Aminopyridine compounds having Syk inhibitory activity” (Japan Tobacco, Inc., priority 2005, dated 2010).

In assay [1] the test system is cultured human mast cells. The experiment in a line: Degranulation inhibition test using cultured human mast cells (IgE cross-linking, β-Hexosaminidase release). It counts as cell-based. The note with it: Mast cell, cultured human mast cells, read-out: human degranulation ave. IC50. An outline of the steps:
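Degranulation was triggered by anti-hIgE (10 μg/mL final, 30 min, 37 °C) after a 10-min compound pretreatment (DMSO 0.1%) of cord-blood CD34+-derived mast cells primed 5 days with IL-4 and IgE. β-Hexosaminidase in supernatant was measured with p-nitrophenyl-GlcNAc substrate (A405), expressed against water-lysed total; IC50 (M).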

Assay [2] concerns the target GST-Syk Full Protein (human) (Homo sapiens, UniProt P43405). The experiment in a line: Syk kinase inhibition test (HTRF method). Type of assay: biochemical. An outline of the steps: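 HTRF read-out: after EDTA termination and 1 h with XL665-streptavidin and Eu-anti-phosphotyrosine, the 665/620 nm ratio was measured. The reaction ran 30 min at 20–25 °C with final 6.4 nM human GST-Syk, 250 nM biotinylated peptide, 100 μM ATP, pH 7.0 HEPES buffer, 2% DMSO.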
Background: Time-resolved FRET reads energy transfer from a long-lived donor to a nearby acceptor.

Where [3] appears, read: anti-hIgE stimulation, β-Hexosaminidase index, average.
Where [4] appears, read: HTRF, 100 μM ATP, 30 min room temperature, average, read-out: sykHTRF ave IC50.
The mark [5] stands for this setting: Tables 2-x, thiophene compounds B.
[6] abbreviates: Tables 2-x, thiophene compounds B, read-out: sykHTRK ave IC50.
[7] abbreviates: Tables 1-x, compounds A, read-out: sykHTRF ave IC50.

pIC50: −log10 of the molar value. Where a name gives a salt, the structure may show the parent alone. Read-outs that look alike come from different tables or passages of the source.

As usually defined, the pIC50 is the IC50 on a negative log10 scale, so that one unit is a factor of ten. As for `Cc1ccnc(Nc2cccc(-c3cnc(C4CCNCC4)s3)n2)c1` [Compound A-92, (4-methylpyridin-2-yl)-[6-(2-piperidin-4-ylthiazol-5-yl)pyridin-2-yl]amine], the figures for the pIC50 in assay [1] (setting [3]) and in assay [2] (setting [4]) were 6.00 to 7.00 and greater than 7.00, respectively.

As for `CON=C(C)c1ccc(-c2cccc(Nc3cc(C)ccn3)n2)s1` [Compound B-18], the results for the pIC50 in assay [1] (setting [5]) and in assay [2] (setting [6]) were less than 6.00 and 6.00 to 7.00, respectively.

As for `CC(=O)N[C@@H](C)c1ncc(-c2cccc(Nc3cc(OCc4ccccc4)ccn3)n2)s1` [Compound A-80], the pIC50 in assay [1] (setting [3]) and in assay [2] (setting [4]) was 6.00 to 7.00 throughout.

In the case of `CC(=O)c1ccnc(Nc2cccc(-c3cnc(N4CCC[C@H]4C(=O)O)s3)n2)c1` [Compound A-564, (S)-1-{5-[6-(4-acetylpyridin-2-ylamino)pyridin-2-yl]thiazol-2-yl}pyrrolidine-2-carboxylic acid dihydrochloride], the pIC50 in assay [1] (Tables 1-x, compounds A) was less than 6.00; in assay [2] (setting [7]), greater than 7.00.

As for `Cc1ccnc(Nc2cccc(-c3cnc(N4CC[C@@H](NC(=O)CO)C4)s3)n2)c1` [Compound A-475, 2-hydroxy-N—((R)-1-{5-[6-(4-methylpyridin-2-ylamino)pyridin-2-yl]thiazol-2-yl}pyrrolidin-3-yl)acetamide], the pIC50 was 6.00 to 7.00 in assay [1] (Tables 1-x, compounds A) and greater than 7.00 in assay [2] (setting [7]).

Regarding `CNC(=O)c1cc(C)c(-c2cccc(Nc3cc(C)ccn3)n2)s1` [Compound B-9], the pIC50 in assay [1] (setting [5]) and in assay [2] (setting [6]) was 6.00 to 7.00 in each case.

As for `Cc1ccnc(Nc2cccc(-c3cnc(N(C)C4CCN(C(=O)CCC(=O)O)CC4)s3)n2)c1` [Compound A-553, 4-[4-(N-methyl-N-{5-[6-(4-methylpyridin-2-ylamino)pyridin-2-yl]thiazol-2-yl}amino)piperidin-1-yl]-4-oxobutyric acid], the pIC50 in assay [1] (Tables 1-x, compounds A) was less than 6.00; in assay [2] (setting [7]), greater than 7.00.

As to `Cc1ccnc(Nc2cccc(-c3ccc(Cl)s3)n2)c1` [Compound B-16], the negative logarithm of the IC50 (pIC50) in assay [1] (setting [5]) is less than 6.00; in assay [2] (setting [6]) it was 6.00 to 7.00.

For `Cc1ccnc(Nc2cccc(-c3cnc([C@@H]4COC(=O)N4CC(=O)N(C)C)s3)n2)c1` [Compound A-408], the pIC50 is less than 6.00 in assay [1] (Tables 1-x, compounds A) and less than 6.00 in assay [2] (setting [7]).

In the case of `Cc1ccnc(Nc2cccc(-c3ccc(C(=NO)C(C)C)s3)n2)c1` [Compound B-50], the pIC50 is less than 6.00 in assay [1] (setting [5]) and 6.00 to 7.00 in assay [2] (setting [6]).

With `Cc1ccnc(Nc2cccc(-c3cnc(N4CCOc5c(C(=O)O)cccc54)s3)n2)c1` [Compound A-614, 4-{5-[6-(4-methylpyridin-2-ylamino)pyridin-2-yl]thiazol-2-yl}-3,4-dihydro-2H-benzo[1,4]oxazine-8-carboxylic acid], the pIC50 is less than 6.00 in assay [1] (Tables 1-x, compounds A) and greater than 7.00 in assay [2] (setting [7]).

For the compound `Cc1ccnc(Nc2cccc(-c3ccc(NC(=O)[C@H](C)O)s3)n2)c1` [Compound B-35], the pIC50 in assay [1] (setting [5]) and in assay [2] (setting [6]) was 6.00 to 7.00 throughout.

Regarding `Cc1ccnc(Nc2cccc(-c3cnc(CNC[C@H]4CC[C@H](CO)CC4)s3)n2)c1` [Compound A-208], the pIC50 was less than 6.00 in assay [1] (setting [3]) and 6.00 to 7.00 in assay [2] (setting [4]).

Turning to `Cc1ccnc(Nc2cccc(-c3cnc([C@H]4CC[C@H](C(=O)N5CCNC(=O)C5)CC4)s3)n2)c1` [Compound A-283, 4-(trans-4-{5-[6-(4-methylpyridin-2-ylamino)pyridin-2-yl]thiazol-2-yl}cyclohexanecarbonyl)piperazin-2-one], the pIC50 in assay [1] (setting [3]) is less than 6.00; in assay [2] (setting [4]), greater than 7.00.

Regarding `CC(=O)NCCc1ncc(-c2cccc(Nc3cc(C)ccn3)n2)s1` [Compound A-256], the pIC50 in assay [1] (setting [3]) and in assay [2] (setting [4]) was 6.00 to 7.00 throughout.

Regarding `Cc1ccnc(Nc2cccc(-c3ccc(C(=O)O)s3)n2)c1` [Compound B-20], the pIC50 in assay [1] (setting [5]) was less than 6.00; in assay [2] (setting [6]), 6.00 to 7.00.

In the case of `Cc1ccnc(Nc2cccc(-c3cnc(CCc4ccc(NS(C)(=O)=O)cc4)s3)n2)c1` [Compound A-221], the pIC50 in assay [1] (setting [3]) was less than 6.00; in assay [2] (setting [4]) it was 6.00 to 7.00.

Regarding `Cc1ccnc(Nc2cccc(-c3cnc([C@H](N)c4ccc(OCc5ccccc5)cc4)s3)n2)c1` [Compound A-150], the pIC50 was less than 6.00 in assay [1] (setting [3]) and 6.00 to 7.00 in assay [2] (setting [4]).

On to `Cc1ccnc(Nc2cccc(-c3cnc(N4CCC(CC(=O)NCCO)CC4)s3)n2)c1` [Compound A-506, N-(2-hydroxyethyl)-2-(1-{5-[6-(4-methylpyridin-2-ylamino)pyridin-2-yl]thiazol-2-yl}piperidin-4-yl)acetamide], for which the pIC50 in assay [1] (Tables 1-x, compounds A) is 6.00 to 7.00; in assay [2] (setting [7]) it was greater than 7.00.

As for `CCN(c1ncc(-c2cccc(Nc3cc(C)ccn3)n2)s1)C1CCN(C(C)=O)CC1` [Compound A-534, 1-[4-(N-ethyl-N-{5-[6-(4-methylpyridin-2-ylamino)pyridin-2-yl]thiazol-2-yl}amino)piperidin-1-yl]ethanone], the pIC50 was 6.00 to 7.00 in assay [1] (Tables 1-x, compounds A) and greater than 7.00 in assay [2] (setting [7]).

In the case of `CNC(=O)C1CCCN(c2ncc(-c3cccc(Nc4cc(C)ccn4)n3)s2)C1` (stereo not drawn) [Compound A-477, N-methyl-1-{5-[6-(4-methylpyridin-2-ylamino)pyridin-2-yl]thiazol-2-yl}piperidine-3-carboxamide], the pIC50 is 6.00 to 7.00 in assay [1] (Tables 1-x, compounds A) and greater than 7.00 in assay [2] (setting [7]).

With `C[C@H](O)c1ncc(-c2cccc(Nc3cc(Cl)ccn3)n2)s1` [Compound A-322, (S)-1-{5-[6-(4-chloropyridin-2-ylamino)pyridin-2-yl]thiazol-2-yl}ethanol], the pIC50 in assay [1] (setting [3]) and in assay [2] (setting [4]) was greater than 7.00 throughout.

On to `Cc1ccnc(Nc2cccc(-c3ccc(C(=O)NC(C)(C)CC(=O)O)s3)n2)c1` [Compound B-101], for which the pIC50 in assay [1] (setting [5]) was less than 6.00; in assay [2] (setting [6]), 6.00 to 7.00.

Turning to `Cc1ccnc(Nc2cccc(-c3cnc([C@H]4CC[C@H](C(=O)N5CC[C@H](O)[C@H](O)C5)CC4)s3)n2)c1` [Compound A-239, ((3R,4S)-3,4-dihydroxypiperidin-1-yl)-(trans-4-{5-[6-(4-methylpyridin-2-ylamino)pyridin-2-yl]thiazol-2-yl}cyclohexyl)methanone], the pIC50 in assay [1] (setting [3]) was 6.00 to 7.00; in assay [2] (setting [4]) it was greater than 7.00.

For the compound `Cc1ccnc(Nc2cccc(-c3cnc(COCC(=O)N4C[C@@H](O)[C@@H](O)C4)s3)n2)c1` [Compound A-374], the results for the pIC50 in assay [1] (setting [3]) and in assay [2] (setting [4]) were less than 6.00 and 6.00 to 7.00, respectively.

Regarding `Cc1ccnc(Nc2cccc(-c3cnc(C(=O)NCCCO)s3)n2)c1` [Compound A-53], the pIC50 in assay [1] (setting [3]) and in assay [2] (setting [4]) was 6.00 to 7.00 throughout.

In the case of `Cc1ccnc(Nc2cccc(-c3ccc(C(=O)NCC(O)CO)s3)n2)c1` (stereo not drawn) [Compound B-102], the figures for the pIC50 in assay [1] (setting [5]) and in assay [2] (setting [6]) were less than 6.00 and 6.00 to 7.00, respectively.

For `Cc1ccnc(Nc2cccc(-c3ccc([N+](=O)[O-])s3)n2)c1` [Compound B-28], the pIC50 in assay [1] (setting [5]) was less than 6.00; in assay [2] (setting [6]), 6.00 to 7.00.

For the compound `CNC(=O)C1CCN(c2ncc(-c3cccc(Nc4cc(OC)ccn4)n3)s2)CC1` [Compound A-436, N-methyl-1-{5-[6-(4-methoxypyridin-2-ylamino)pyridin-2-yl]thiazol-2-yl}piperidine-4-carboxamide], the pIC50 in assay [1] (Tables 1-x, compounds A) was 6.00 to 7.00; in assay [2] (setting [7]), greater than 7.00.

For the compound `Cc1ccnc(Nc2cccc(-c3cnc([C@H]4CC[C@H](CO)CC4)s3)n2)c1` [Compound A-211, (trans-4-{5-[6-(4-methylpyridin-2-ylamino)pyridin-2-yl]thiazol-2-yl}cyclohexyl)methanol], the pIC50 is 6.00 to 7.00 in assay [1] (setting [3]) and greater than 7.00 in assay [2] (setting [4]).
